Results as given in patent US20130143835A1, “HCV Polymerase Inhibitors” (MEDIVIR AB, priority 2011, published 2013).

tested on: HCV type 1b replicon in Huh-7 luc/neo (Huh-Luc) cells; assay: HCV replicon assay (Huh-Luc cells, luciferase read-out); assay type: cell-based; conditions: Hepatitis C virus, Huh-7, 72 h, inhibition of HCV replication, three days incubation, luciferase activity
Description: The in vitro antiviral activity against HCV of the compounds of formula I can be tested in a cellular HCV replicon system based on Lohmann et al. (1999) Science 285:110-113, with the further modifications described by Krieger et al. (2001) Journal of Virology 75: 4614-4624 (incorporated herein by reference), which is further exemplified in the examples section. This model, while not a complete infection model for HCV, is widely accepted as the most robust and efficient model of autonomous HCV RNA replication currently available. It will be appreciated that it is important to distinguish between compounds that specifically interfere with HCV functions from those that exert cytotoxic or cytostatic effects in the HCV replicon model, and as a consequence cause a decrease in HCV RNA or linked reporter enzyme concentration. Assays are known in the field for the evaluation of cellular cytotoxicity based for example on the activity of mitochondrial enzymes using fluorogenic redox dyes such as resazurin. Furthermore, cellular counter screens exist for the evaluation of non-selective inhibition of linked reporter gene activity, such as firefly luciferase. Appropriate cell types can be equipped by stable transfection with a luciferase reporter gene whose expression is dependent on a constitutively active gene promoter, and such cells can be used as a counter-screen to eliminate non-selective inhibitors.
The compounds of formula I may be examined for activity in the inhibition of HCV RNA replication in a cellular assay aimed at identifying compounds that inhibit a HCV functional cellular replicating cell line, also known as HCV replicons. A suitable cellular assay is based on a bicistronic expression construct, as described by Lohmann et al. (1999), Science vol. 285 pp. 110-113 with modifications described by Krieger et al. (2001), Journal of Virology 75: 4614-4624, in a multi-target screening strategy.
The assay utilizes the stably transfected cell line Huh-7 luc/neo (hereafter referred to as Huh-Luc). This cell line harbors an RNA encoding a bicistronic expression construct comprising the wild type NS3-NS5B regions of HCV type 1b translated from an Internal Ribosome Entry Site (IRES) from encephalomyocarditis virus (EMCV), preceded by a reporter portion (FfL-luciferase), and a selectable marker portion (neo^R, neomycine phosphotransferase). The construct is bordered by 5′ and 3′ NTRs (non-translated regions) from HCV type 1b. Continued culture of the replicon cells in the presence of G418 (neo^R) is dependent on the replication of the HCV RNA. The stably transfected replicon cells that express HCV RNA, which replicates autonomously and to high levels, encoding inter alia luciferase, are used for screening the antiviral compounds.
The replicon cells are plated in 384 well plates in the presence of the test and control compounds which are added in various concentrations. Following an incubation of three days, HCV replication is measured by assaying luciferase activity (using standard luciferase assay substrates and reagents and a Perkin Elmer ViewLux™ ultraHTS microplate imager). Replicon cells in the control cultures have high luciferase expression in the absence of any inhibitor. The inhibitory activity of a compound on luciferase activity is monitored on the Huh-Luc cells, enabling a dose-response curve for each test compound. EC50 values are then calculated, which value represents the amount of the compound required to decrease the level of detected luciferase activity by 50%, or more specifically, the ability of the genetically linked HCV replicon RNA to replicate.

Which EC50 does the source give for `C[C@@]1(N)[C@H](O)[C@@H](CO)O[C@H]1n1ccc(=O)[nH]c1=O` [Example 1, 1-((2R,3R,4S,5R)-3-amino-4-hydroxy-5-(hydroxymethyl)-3-methyltetrahydrofuran-2-yl)pyrimidine-2,4(1H,3H)-dione] here?
The EC50 was > 50000 nM.

same assay, conditions: inhibition of HCV replication, three days incubation, luciferase activity

With `CCC(CC)OC(=O)[C@H](C)NP(=O)(OC[C@H]1O[C@@H](n2ccc(=O)[nH]c2=O)[C@](C)(N)[C@@H]1O)Oc1ccccc1` (single isomer, unassigned) [Example 28A] as the compound, how does the EC50 read?
The EC50 was 34000 nM.

`CCOC(=O)[C@H](C)NP(=O)(OC[C@H]1O[C@@H](n2ccc(=O)[nH]c2=O)[C@](C)(N)[C@@H]1O)Oc1ccccc1` (single isomer, unassigned) [Example 11A] was tested. Which EC50 did it give?
Its EC50 is 6400 nM.

With `CC(C)COC(=O)[C@H](C)NP(=O)(OC[C@H]1O[C@@H](n2ccc(=O)[nH]c2=O)[C@](C)(N)[C@@H]1O)Oc1ccccc1` (single isomer, unassigned) [Example 17A] as the compound, how does the EC50 read?
The EC50 was 2600 nM.

`C[C@H](NP(=O)(OC[C@H]1O[C@@H](n2ccc(=O)[nH]c2=O)[C@](C)(N)[C@@H]1O)Oc1ccccc1)C(=O)OCCC(C)(C)C` (single isomer, unassigned) [Example 6A] was tested. Which EC50 did it give?
Its EC50 is 2300 nM.

Which EC50 does the source give for `COC(=O)[C@H](C)NP(=O)(OC[C@H]1O[C@@H](n2ccc(=O)[nH]c2=O)[C@](C)(N)[C@@H]1O)Oc1ccccc1` (single isomer, unassigned) [Example 16B] here?
The EC50 was 2100 nM.

For `C[C@H](NP(=O)(OC[C@H]1O[C@@H](n2ccc(=O)[nH]c2=O)[C@](C)(N)[C@@H]1O)Oc1ccccc1)C(=O)OCC1CCCC1` (single isomer, unassigned) [Example 27B], which EC50 is on record?
The EC50 was 380 nM.

Which EC50 does the source give for `CC[C@@H](C)OC(=O)[C@H](C)NP(=O)(OC[C@H]1O[C@@H](n2ccc(=O)[nH]c2=O)[C@](C)(N)[C@@H]1O)Oc1ccccc1` (single isomer, unassigned) [Example 21B] here?
Its EC50 is 740 nM.

`CC(C)OC(=O)[C@H](C)NP(=O)(OC[C@H]1O[C@@H](n2ccc(=O)[nH]c2=O)[C@](C)(N)[C@@H]1O)Oc1ccccc1` (some centres unmarked) [Example 2] was tested. Which EC50 did it give?
The EC50 was 2000 nM.

With `CC[C@@H](C)OC(=O)[C@H](C)NP(=O)(OC[C@H]1O[C@@H](n2ccc(=O)[nH]c2=O)[C@](C)(N)[C@@H]1O)Oc1ccccc1` (single isomer, unassigned) [Example 21A] as the compound, how does the EC50 read?
Its EC50 is 5100 nM.

With `C[C@H](NP(=O)(OC[C@H]1O[C@@H](n2ccc(=O)[nH]c2=O)[C@](C)(N)[C@@H]1O)Oc1ccccc1)C(=O)OCC1CC1` (single isomer, unassigned) [Example 26A] as the compound, how does the EC50 read?
Its EC50 is 1700 nM.

With `CCCCCOC(=O)[C@H](C)NP(=O)(OC[C@H]1O[C@@H](n2ccc(=O)[nH]c2=O)[C@](C)(N)[C@@H]1O)Oc1ccccc1` (single isomer, unassigned) [Example 18B] as the compound, how does the EC50 read?
Its EC50 is 320 nM.

`CCCCOC(=O)[C@H](C)NP(=O)(OC[C@H]1O[C@@H](n2ccc(=O)[nH]c2=O)[C@](C)(N)[C@@H]1O)Oc1ccccc1` (single isomer, unassigned) [Example 19A] was tested. Which EC50 did it give?
The EC50 was 1400 nM.

With `C[C@H](NP(=O)(OC[C@H]1O[C@@H](n2ccc(=O)[nH]c2=O)[C@](C)(N)[C@@H]1O)Oc1ccccc1)C(=O)OCc1ccccc1` (single isomer, unassigned) [Example 15A] as the compound, how does the EC50 read?
The EC50 was 3100 nM.

For `CCCCCOC(=O)[C@H](C)NP(=O)(OC[C@H]1O[C@@H](n2ccc(=O)[nH]c2=O)[C@](C)(N)[C@@H]1O)Oc1ccccc1` (single isomer, unassigned) [Example 18A], which EC50 is on record?
Its EC50 is 1800 nM.

How did the EC50 turn out when `C[C@H](NP(=O)(OC[C@H]1O[C@@H](n2ccc(=O)[nH]c2=O)[C@](C)(N)[C@@H]1O)Oc1ccccc1)C(=O)OC1CCCCC1` (single isomer, unassigned) [Example 12A] was run?
The EC50 was 380 nM.

For `CC[C@@H](C)OC(=O)[C@H](C)NP(=O)(OC[C@H]1O[C@@H](n2ccc(=O)[nH]c2=O)[C@](C)(N)[C@@H]1O)Oc1ccccc1` (single isomer, unassigned) [Example 22A], which EC50 is on record?
Its EC50 is 21000 nM.

How did the EC50 turn out when `CCC(CC)COC(=O)[C@H](C)NP(=O)(OC[C@H]1O[C@@H](n2ccc(=O)[nH]c2=O)[C@](C)(N)[C@@H]1O)Oc1ccccc1` (single isomer, unassigned) [Example 20B] was run?
The EC50 was 400 nM.

For `CC[C@@H](C)OC(=O)[C@H](C)NP(=O)(OC[C@H]1O[C@@H](n2ccc(=O)[nH]c2=O)[C@](C)(N)[C@@H]1O)Oc1ccccc1` (single isomer, unassigned) [Example 22B], which EC50 is on record?
Its EC50 is 660 nM.

How did the EC50 turn out when `CCC[C@H](C)OC(=O)[C@@H](C)NP(=O)(OC[C@H]1O[C@@H](n2ccc(=O)[nH]c2=O)[C@](C)(N)[C@@H]1O)Oc1ccccc1` (single isomer, unassigned) [Example 25B] was run?
The EC50 was 380 nM.

For `C[C@H](NP(=O)(OC[C@H]1O[C@@H](n2ccc(=O)[nH]c2=O)[C@](C)(N)[C@@H]1O)Oc1ccccc1)C(=O)OCC(C)(C)C` (single isomer, unassigned) [Example 13B], which EC50 is on record?
Its EC50 is 300 nM.

How did the EC50 turn out when `CCCOC(=O)[C@H](C)NP(=O)(OC[C@H]1O[C@@H](n2ccc(=O)[nH]c2=O)[C@](C)(N)[C@@H]1O)Oc1ccccc1` (single isomer, unassigned) [Example 24B] was run?
The EC50 was 1500 nM.

With `CCCC(CCC)COC(=O)[C@H](C)NP(=O)(OC[C@H]1O[C@@H](n2ccc(=O)[nH]c2=O)[C@](C)(N)[C@@H]1O)Oc1ccccc1` (single isomer, unassigned) [Example 14B] as the compound, how does the EC50 read?
Its EC50 is 420 nM.

`CC(C)OC(=O)[C@H](C)NP(=O)(OC[C@H]1O[C@@H](n2ccc(=O)[nH]c2=O)[C@](C)(N)[C@@H]1O)Oc1ccccc1` (single isomer, unassigned) [Example 9B] was tested. Which EC50 did it give?
Its EC50 is 920 nM.

`CCCC(CCC)COC(=O)[C@H](C)NP(=O)(OC[C@H]1O[C@@H](n2ccc(=O)[nH]c2=O)[C@](C)(N)[C@@H]1O)Oc1ccccc1` (single isomer, unassigned) [Example 14A] was tested. Which EC50 did it give?
Its EC50 is 1600 nM.

Which EC50 does the source give for `CC(C)COC(=O)[C@H](C)NP(=O)(OC[C@H]1O[C@@H](n2ccc(=O)[nH]c2=O)[C@](C)(N)[C@@H]1O)Oc1ccccc1` (single isomer, unassigned) [Example 17B] here?
Its EC50 is 600 nM.

How did the EC50 turn out when `COC(=O)[C@H](C)NP(=O)(OC[C@H]1O[C@@H](n2ccc(=O)[nH]c2=O)[C@](C)(N)[C@@H]1O)Oc1ccccc1` (single isomer, unassigned) [Example 16A] was run?
Its EC50 is 5100 nM.

`CCC(CC)OC(=O)[C@H](C)NP(=O)(OC[C@H]1O[C@@H](n2ccc(=O)[nH]c2=O)[C@](C)(N)[C@@H]1O)Oc1ccccc1` (single isomer, unassigned) [Example 28B] was tested. Which EC50 did it give?
The EC50 was 480 nM.

Which EC50 does the source give for `C[C@H](NP(=O)(OC[C@H]1O[C@@H](n2ccc(=O)[nH]c2=O)[C@](C)(N)[C@@H]1O)Oc1ccccc1)C(=O)OC1CCCC1` (single isomer, unassigned) [Example 5B] here?
Its EC50 is 470 nM.

With `C[C@H](NP(=O)(OC[C@H]1O[C@@H](n2ccc(=O)[nH]c2=O)[C@](C)(N)[C@@H]1O)Oc1ccccc1)C(=O)OCCC(C)(C)C` (single isomer, unassigned) [Example 6B] as the compound, how does the EC50 read?
Its EC50 is 490 nM.

`C[C@H](NP(=O)(OC[C@H]1O[C@@H](n2ccc(=O)[nH]c2=O)[C@](C)(N)[C@@H]1O)Oc1ccccc1)C(=O)OCC1CCCC1` (single isomer, unassigned) [Example 27A] was tested. Which EC50 did it give?
Its EC50 is 2200 nM.

How did the EC50 turn out when `C[C@H](NP(=O)(OC[C@H]1O[C@@H](n2ccc(=O)[nH]c2=O)[C@](C)(N)[C@@H]1O)Oc1ccccc1)C(=O)OCC(C)(C)C` (single isomer, unassigned) [Example 13A] was run?
Its EC50 is 2400 nM.

Which EC50 does the source give for `C[C@H](NP(=O)(OC[C@H]1O[C@@H](n2ccc(=O)[nH]c2=O)[C@](C)(N)[C@@H]1O)Oc1ccccc1)C(=O)OC1CCC1` (single isomer, unassigned) [Example 8A] here?
The EC50 was 1900 nM.

`C[C@H](NP(=O)(OC[C@H]1O[C@@H](n2ccc(=O)[nH]c2=O)[C@](C)(N)[C@@H]1O)Oc1ccccc1)C(=O)OC1CCCC1` (single isomer, unassigned) [Example 5A] was tested. Which EC50 did it give?
Its EC50 is 4700 nM.

For `C[C@H](NP(=O)(OC[C@H]1O[C@@H](n2ccc(=O)[nH]c2=O)[C@](C)(N)[C@@H]1O)Oc1ccccc1)C(=O)OC1CCCCC1` (single isomer, unassigned) [Example 12B], which EC50 is on record?
Its EC50 is 130 nM.
